Assays:
S. epidermidis = test: HTS total bacterial growth assay (optical density OD560); format: cell-based; conditions: Staphylococcus epidermidis, dose-response, read-out: Total Bacteria Growth AC50
Text: (§1) Each HTS tier consisted of: (i) primary screening, (ii) confirmation screening and (iii) dose-response curve screening. Each tier of HTS included three distinct biological process assays. The first assay was an optical density measurement of bacteria growth in the presence of each compound reported as a total bacteria growth. In the second assay, resazurin solution was used as an indicator of metabolic activity to measure the live bacteria in the biofilms, reported as live biofilm. The final assay was crystal violet staining, which indicated the amount of biofilm formation and the effect of each compound on this process, reported as total biofilm formation.
(§2) Briefly, stationary phase bacteria grown in L-broth were diluted 1:200 into fresh L-broth and 50 μM of each test compound. After 20-24 hours, the optical density (OD560) of each suspension was measured using Zeiss Plate::Vision with a 560 BP filter (560 nm, 2.5% light intensity, 1 mm focus to bottom of plate, and exposure time of 100 ms). To measure bacterial viability in the biofilm, 50 μl of a 5 mg/ml resazurin solution in L-broth was added to each well after washing 3 times with 50 μl of PBS. The plates were then incubated at 37° C. for 30 or 180 min for A. baumannii and P. aeruginosa biofilms, respectively. Fluorescence was measured using Zeiss Plate::Vision at excitation and emission wavelengths of 535 and 580 nm, 100 ms exposure time, 2.5% intensity and a 2 mm focus to the bottom of the biofilms. To assess biofilm formation, plates were washed 3 times with PBS and then 50 μl of 0.01% of crystal violet was added to each well to assess bacterial biofilm formation as described in a similar borosilicate tube assay by O'Toole and Kolter. After incubation at room temperature for 30 min and removal of the crystal violet solution by washing with PBS, 95% ethanol was added to solubilize the crystal violet followed by incubation for 20 min at room temperature. Finally, the optical density of each plate was determined using measured by Zeiss Plate::Vision using the same settings used to measure total bacterial growth. These 3 steps were used in each of the three tiers for the HTS process: (i) single point primary screening at 10 μM, (ii) triplicate confirmation of hits from (i) at 10 μM and (iii) determination of AC50 values in 10 point dose-response at a concentration range of 0.1-50 μM) in hits from (ii). The AC50 represents the concentration of compound that inhibits 50% of bacterial growth, bacterial viability, or biofilm formation. Genedata Screener® Assay Analyzer Software (Ver. 9.0.0 Standard) was used to analyze data from all assay tiers. Compounds with an AC50 of less than 20 μM in one of the biological assays from the dose response screen were subject to additional investigation.

P. aeruginosa biofilm [1] = test: HTS total biofilm formation assay (crystal violet staining); format: cell-based, Pseudomonas aeruginosa; conditions: for AC50: 10 point dose-response 0.1-50 μM
Text: as §1, §2

A. baumannii biofilm [2] = test: HTS live biofilm assay (resazurin metabolic activity); format: cell-based, Acinetobacter baumannii; conditions: for AC50: Acinetobacter baumannii, 10 point dose-response 0.1-50 μM
Text: as §1, §2

P. aeruginosa biofilm [3] = test: as above; format: cell-based; conditions: Pseudomonas aeruginosa, 10 point dose-response 0.1-50 μM
Text: as §1, §2

S. epidermidis biofilm [4] = test: as above; format: cell-based; conditions: Staphylococcus epidermidis, dose-response
A. baumannii biofilm [5] = test: CLSM, co-culture of bacteria with compound (inhibition of biofilm formation); format: cell-based, Acinetobacter baumannii; conditions: for killing of residential bacteria, co-culture (CLSM, in words): 10 μM; for Co-culture of bacteria with compound: Killing: Y / —
Protocol: (§3) Broad spectrum agents (effective against all three bacterial species) and single agent compounds identified as HTS hits were investigated with CLSM confirmation of inhibition of biofilm formation (culture of bacteria with compounds) or killing of bacteria residing within an established biofilm (compound addition after culturing biofilm). To evaluate inhibition of P. aeruginosa biofilms, bacteria were sub-cultured into 10% L-broth and grown at 37° C. until the OD600 reached 0.25. The bacteria were further diluted 1:100 into a modified 0.5×M63 minimum media (50 mM KH2PO4, 7.5 mM (NH4)2SO4, 9 μM FeSO4, 0.5% casamino acids, 0.2% glucose, and 1 mM MgSO4). A. baumannii biofilms were also grown in 10% L-broth until the OD600 reached 0.05 but diluted 1:10 into 5% L-broth media. S. epidermidis biofilm cultures were grown. Briefly, the bacteria were grown in TSB until the OD600 reached 0.75, and a 1:100 dilution of the bacteria was sub-cultured into phosphate buffered saline (PBS). All of the biofilm bacterial cultures were grown in 96-well plate chambers (MatTek Corp., Ashland, Mass.) in the presence of 10 μM of each compound or DMSO as a control and incubated for 18 hrs at 37° C. To investigate the ability of compounds to kill bacteria within pre-existing biofilms, biofilms were grown under the same conditions, but without test compound. These biofilms were washed once with PBS and incubated an additional 24 hr at 37° C. in PBS containing 300 μM of each compound. All biofilm cultures were then washed twice with 100 μL of PBS and stained using the LIVE/DEAD® BacLight™ Bacterial Viability Kit (Invitrogen). Finally, biofilm images were obtained using a Zeiss LSM510 META Confocal Microscope (Carl Zeiss, Inc., Germany). A 488 nm laser was used in conjunction with a Plan-Apochromat 100×/1.4 Oil DIC objective. Z-stacks were 8 bit and measured 127.3 μm×127.3 μm×16.0 μm in size. The filters used were 505-530 and 620-680 IR, as the excitation and emission wavelengths for red fluorescence are 490 nm and 635 nm, respectively, and 480 nm and 500 nm for green fluorescence. Three dimensional images were generated using the “Projection” ability on LSM Image Browser software (v.1.4.0.121) or Zeiss LSM image browser software version 3.5 (Carl Zeiss, Inc., Germany), and Live/Dead calculations were conducted based upon these images using MacBiophotonics ImageJ following the guidelines in the cell counting guide by C. Labno {Rasband, 1997-2011 #25; Labno, #2} at the University of Chicago Integrated Light Microscopy Core. The thickness of the biofilm was calculated using Comstat software. A hit was defined as a >50% dead to live ratio.
(§4) The CLSM experiment was performed in one or two or all bacteria used in this study depending on its activity. For the validation of HTS hits, 10 μM of compound was added to each bacterial suspension and the resulting biofilm stained with LIVE/DEAD® BacLight™ Bacterial Viability Kit. The images were analyzed to determine the live and dead ratios of biofilm bacteria, the thickness of biofilms, and structural attributes of biofilms.

S. epidermidis biofilm [6] = test: as above; format: cell-based, Staphylococcus epidermidis; conditions: for killing of residential bacteria, co-culture (CLSM, in words): 10 μM; for Co-culture of bacteria with compound: Killing: CLSM, 10 μM compound, 18 hrs, Y / —
Protocol: as §3, §4

SMILES	AC50 (S. epidermidis) [µM]	AC50 (P. aeruginosa biofilm [1]; Pseudomonas aeruginosa) [µM]	AC50 (A. baumannii biofilm [2]) [µM]	AC50 (P. aeruginosa biofilm [3]) [µM]	AC50 (S. epidermidis biofilm [4]) [µM]	Co-culture of bacteria with compound: Inhibit biofilm formation (A. baumannii biofilm [5]; CLSM, 10 μM compound, 18 hrs)	killing of residential bacteria, co-culture (CLSM, in words) (S. epidermidis biofilm [6])	Co-culture of bacteria with compound: Killing (S. epidermidis biofilm [6])	killing of residential bacteria, co-culture (CLSM, in words) (A. baumannii biofilm [5])	Co-culture of bacteria with compound: Killing (A. baumannii biofilm [5]; CLSM, 10 μM compound, 18 hrs)	AC50 (P. aeruginosa biofilm [1]) [µM]	HTS assay results: Biofilm Formation (P. aeruginosa biofilm [1]; Y / —)	HTS assay results: Live Bacteria (A. baumannii biofilm [2]; Y / —)
O=C(O)c1cn(C2CC2)c2c(F)c(-c3ccncc3)c(F)cc2c1=O [Compound 11, 7-(4-pyridyl)-1-cyclopropyl-6,8-difluoro-4-oxoquinoline-3-carboxylic acid]	< 0.1	7.4	0.61	9.6	< 0.1	inhibited biofilm formation	killed	Y (A hit was defined as a >50% dead to live ratio)					
Cn1sc(Cl)c(C#N)c1=O [Compound 3, 5-chloro-2-methyl-3-oxo-1,2-thiazole-4-carbonitrile]	8.89	3.07	4.04	13.4	8.61		killed residential bacteria	Y (A hit was defined as a >50% dead to live ratio)	killed residential bacteria	Y (A hit was defined as a >50% dead to live ratio)			
O=C(O)c1cn(C2CC2)c2c(F)c(N3CC(O)C3)c(F)cc2c1=O [Compound 8, 1-cyclopropyl-6,8-difluoro-7-(3-hydroxyazetidin-1-yl)-4-oxoquinoline-3-carboxylic acid]	< 0.1		2.33	57	< 0.1		killed residential bacteria	Y (A hit was defined as a >50% dead to live ratio)	killed residential bacteria	Y (A hit was defined as a >50% dead to live ratio)	10.3	—* (AC50 higher than 20 μM)	—* (AC50 higher than 20 μM)
NC(=S)N1CCN(c2cc3c(cc2F)c(=O)c(C(=O)O)cn3C2CC2)CC1 [Compound 7, 7-(4-carbamothioylpiperazin-1-yl)-1-cyclopropyl-6-fluoro-4-oxoquinoline-3-carboxylic acid]	2.2	7.81	8.45	0.38	0.85		killed residential bacteria	Y (A hit was defined as a >50% dead to live ratio)	killed residential bacteria	Y (A hit was defined as a >50% dead to live ratio)			

Reference: US10704076B2, “Multi-tiered high through-put screen for compounds effective against bacterial biofilm and compounds effective for inhibiting and eradicating bacterial biofilm” (University of Cincinnati, priority 2013, dated 2020)
